Article PMC2694132 (Cancer research, 2009)
Entries after “also recorded” stand apart in the source; their conditions may differ.

How the values were obtained:
[1] = target: T1, UGT1A8*3 (UGT1A8p.Cys277Tyr) (Homo sapiens, UniProt Q9HAW9, C277Y); assay: Glucuronidation, UGT1A8*3 variant cell homogenate; format: in vitro ADME; conditions: using up to 8 mmol/L SAHA
T1 sequence (Q9HAW9 26-530 C277Y): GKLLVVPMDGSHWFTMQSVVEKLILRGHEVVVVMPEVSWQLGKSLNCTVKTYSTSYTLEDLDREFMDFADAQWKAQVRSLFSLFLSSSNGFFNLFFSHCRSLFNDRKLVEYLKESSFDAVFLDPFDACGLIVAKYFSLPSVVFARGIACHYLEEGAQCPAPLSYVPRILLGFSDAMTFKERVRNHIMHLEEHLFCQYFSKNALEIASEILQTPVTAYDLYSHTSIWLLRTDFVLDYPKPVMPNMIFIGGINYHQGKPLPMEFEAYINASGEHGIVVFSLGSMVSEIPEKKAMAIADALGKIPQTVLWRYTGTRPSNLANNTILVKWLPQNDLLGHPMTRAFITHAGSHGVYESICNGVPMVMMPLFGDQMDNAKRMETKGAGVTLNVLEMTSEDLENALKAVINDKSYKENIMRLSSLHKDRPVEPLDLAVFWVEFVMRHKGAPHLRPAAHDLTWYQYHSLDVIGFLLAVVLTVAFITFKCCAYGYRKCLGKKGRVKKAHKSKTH

[2] = target: T2, UGT1A7*4 (UGT1A7p.Trp208Arg) (Homo sapiens, UniProt Q9HAW7, W208R); assay: SAHA glucuronidation, UGT1A7*4 variant cell homogenate; format: in vitro ADME
T2 sequence (Q9HAW7 26-530 W208R): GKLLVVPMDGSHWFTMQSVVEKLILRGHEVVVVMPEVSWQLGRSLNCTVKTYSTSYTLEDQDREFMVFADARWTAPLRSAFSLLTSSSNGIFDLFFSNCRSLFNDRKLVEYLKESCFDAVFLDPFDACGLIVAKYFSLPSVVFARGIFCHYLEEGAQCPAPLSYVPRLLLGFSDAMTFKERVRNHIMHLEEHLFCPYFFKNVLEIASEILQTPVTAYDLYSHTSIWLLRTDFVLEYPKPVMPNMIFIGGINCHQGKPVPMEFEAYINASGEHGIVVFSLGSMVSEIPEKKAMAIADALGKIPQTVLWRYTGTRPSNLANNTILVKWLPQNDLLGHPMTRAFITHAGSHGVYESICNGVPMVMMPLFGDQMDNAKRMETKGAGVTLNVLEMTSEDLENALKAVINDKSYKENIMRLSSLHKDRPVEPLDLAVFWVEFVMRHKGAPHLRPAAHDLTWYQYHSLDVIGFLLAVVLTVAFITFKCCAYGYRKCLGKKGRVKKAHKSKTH

[3] = target: T3, UGT1A3 (Homo sapiens, UniProt P35503); assay: SAHA glucuronidation, UGT1A3-overexpressing HEK293 cell homogenate; format: in vitro ADME
T3 sequence (P35503 29-534): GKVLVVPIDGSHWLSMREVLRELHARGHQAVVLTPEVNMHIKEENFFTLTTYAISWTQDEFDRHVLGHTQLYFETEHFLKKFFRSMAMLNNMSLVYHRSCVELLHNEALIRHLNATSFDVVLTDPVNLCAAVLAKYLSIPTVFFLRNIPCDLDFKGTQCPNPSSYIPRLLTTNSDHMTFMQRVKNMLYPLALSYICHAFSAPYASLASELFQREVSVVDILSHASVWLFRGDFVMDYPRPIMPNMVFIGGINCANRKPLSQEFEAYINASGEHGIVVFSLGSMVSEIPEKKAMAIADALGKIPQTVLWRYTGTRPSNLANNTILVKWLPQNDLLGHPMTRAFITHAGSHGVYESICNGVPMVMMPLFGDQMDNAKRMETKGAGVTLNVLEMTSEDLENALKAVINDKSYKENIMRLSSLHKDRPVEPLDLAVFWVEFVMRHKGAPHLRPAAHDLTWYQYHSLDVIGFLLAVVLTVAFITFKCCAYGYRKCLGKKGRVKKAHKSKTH

[4] = in vitro; conditions: human, pH 7.5
[5] = target: T4, UGT1A1 (Homo sapiens, UniProt P22309); assay: SAHA glucuronidation screen, UGT1A1-overexpressing cell homogenate; format: in vitro ADME
T4 sequence (P22309 26-533): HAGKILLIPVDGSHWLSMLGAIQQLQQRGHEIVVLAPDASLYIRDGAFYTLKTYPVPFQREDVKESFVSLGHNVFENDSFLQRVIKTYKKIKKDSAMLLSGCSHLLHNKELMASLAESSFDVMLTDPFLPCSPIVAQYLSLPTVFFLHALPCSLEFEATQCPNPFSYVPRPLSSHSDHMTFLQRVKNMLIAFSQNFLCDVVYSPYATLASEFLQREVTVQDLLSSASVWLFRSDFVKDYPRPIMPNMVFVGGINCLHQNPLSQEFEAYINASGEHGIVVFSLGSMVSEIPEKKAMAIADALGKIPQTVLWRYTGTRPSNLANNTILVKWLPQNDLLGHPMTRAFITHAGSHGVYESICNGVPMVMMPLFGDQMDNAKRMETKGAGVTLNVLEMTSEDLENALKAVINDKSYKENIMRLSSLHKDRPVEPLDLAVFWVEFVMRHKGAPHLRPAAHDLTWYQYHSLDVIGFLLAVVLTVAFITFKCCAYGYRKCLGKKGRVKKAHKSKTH

O=C(CCCCCCC(=O)Nc1ccccc1)NO [SAHA, Suberoylanilide hydroxamic acid]
glucuronidation activity against SAHA [1]: no detectable glucuronidation activity; also recorded: inactive | SAHA-glucuronide formation, HLM with one versus two intact UGT2B17 alleles (200 μmol/L SAHA): No difference | decrease in SAHA-glucuronide formation, UGT2B17 (*2/*2) HLM versus HLM with intact UGT2B17 (200 μmol/L SAHA, 20 μg HLM protein, 100 subjects): 45% | increase in KM, UGT2B17 (*2/*2) HLM versus UGT2B17 (*1/*1) HLM (13 HLM per genotype, 65 to 8,000 μmol/L SAHA): 75% | change in Vmax between UGT2B17 genotype subgroups (HLM (*1/*1) versus (*2/*2)): No change | share of hepatic SAHA glucuronidation from UGT2B17 (from UGT2B17-deleted versus wild-type HLM): ~ 45% | difference in glucuronidation activity against SAHA versus wild-type UGT1A7 ([2]; UGT1A7 variants): No significant difference | Km at 1 h ([2]; human, pH 7.5): 2200 ± 500 µM | glucuronidation against SAHA (screen) ([3]; 400 μg UGT-overexpressing cell homogenate, 1-h incubation): high levels of glucuronidation | Km at 1 h ([3]; human, UGT1A3-overexpressing HEK293 cell homogenate, pH 7.5): 3400 ± 800 µM | Km ([4]; human liver microsomes from UGT2B17 (*1/*1) subjects): 1200 µM | Km ([4]; human liver microsomes from UGT2B17 (*2/*2) subjects): 2100 µM | Km at 1 h ([5]; human, UGT1A1-overexpressing cell homogenate, pH 7.5): > 8000 µM | glucuronidation against SAHA ([5]; in vitro, UGT-overexpressing cell homogenate): detectable levels of glucuronidation
